Measurements published in US20220168193A1, “FLEXIBLE METAL PATCH HAVING ANTIOXIDANT ACTIVITY AND BRIGHTENING EFFECT AND METHOD FOR USING SAME” (LABNPEOPLE CO., LTD., priority 2019, published 2022).

Experiment: DPPH free radical scavenging activity test
Type: biochemical
Settings: for DPPH free radical scavenge activity (%) (mean ± standard deviation): 0.2 mM DPPH 1:1, 30 min
Description: To evaluate the DPPH free radical scavenging activity of the biodegradable metal of the present invention, samples were provided to the Korea Testing & Research Institute and the test thereof was performed in a manner described below by the Korea Testing & Research Institute at the request of the inventors.
a. Test substance • Magnesium patch with a purity of 95% or more (See FIG. 1 in which the patch is provided with microneedles that are not bent). • The sample used for the test is a sheet shape (dimensions: 2.6 mm×2.4 mm, thickness 0.1 t) made of Mg with a purity of 95% or more and including unavoidable impurities generated during manufacturing thereof.
b. Positive control • L-ascorbic acid: Sigma-Aldrich Corporation, Lot No. SLBR2586V
c. Etc. • 2,2-Diphenyl-1-picrylhydrazyl (DPPH): Sigma-Aldrich Corporation, Lot No. STBH0044 • Methanol: JINSEI, Lot No. 2016G2012
a. Preparation of test substance: The provided test substance was used without conversion of purity. Methanol was used to adjust the concentration.
After weighing L-ascorbic acid, it was prepared to have a predetermined concentration using methanol.
DPPH was prepared to have a concentration of 0.2 mM using methanol.
In a 96-well plate, each of the preparations (test substance and positive control substance) having different concentrations was mixed with a combination of 0.2 mM DPPH and methanol in a mixing ratio of 1:1.
After reacting at room temperature for 30 minutes in a light-shielding state, centrifugation was performed to obtain a supernatant, and absorbance was measured at a wavelength of 517 nm.
The free radical scavenger activity (%) of DPPH was calculated using Equation 1 below.
DPPH radical scavenging activity(%)=1−(A/B)×100 <Equation 1>
In Equation 1, A is the absorbance of the test substance, and B is the absorbance of the blank sample.
The result of each test was measured three times to obtain the mean value and standard deviation, and statistical analysis was performed using the SPSS statistical program (Ver. 19.0). First, after performing Levene's test, a one-way ANOVA test was performed. When significance was confirmed among the test groups, a post-hoc test was performed depending on the presence or absence of homogeneity of variances (when the variances are homogeneous, Duncan's multiple test was performed whereas when the variances were heterogeneous, Dunnett's T3 was performed).

In the case of O=C1O[C@H]([C@@H](O)CO)C(O)=C1O [L-ascorbic acid], the “DPPH free radical scavenge activity (%) (mean ± standard deviation)” value (concentration 0.0005%) was 20.96%, the “DPPH free radical scavenge activity (%) (mean ± standard deviation)” value (concentration 0.001%) was 40.38% and the “DPPH free radical scavenge activity (%) (mean ± standard deviation)” value (concentration 0.0015%) was 65.57%. For the same compound, the “DPPH free radical scavenge activity (%) (mean ± standard deviation)” value (concentration 0.002%) was 83.24% and the “IC50 (concentration at which 50% activity is exhibited), DPPH scavenging” value (methanol solution) was 0.0012%.
